# Several values for one entry are separate records, joined by “and”; a condition that tells them apart may be missing. Equal entries are not always repeated.
# Legend:
# SNAT1 = biological target: T1, SNAT1 (Homo sapiens, UniProt Q9H2H9); test: Alanine uptake in HCC1806 D126 (ASCT2ko, SNAT2ko) cells; assay type: cell-based; details: for Alanine uptake (nmol / mg protein x 6 min): Figure 4B, replicates 1-3; for inhibition of alanine uptake: HCC1806 D126, Figure 4B, betaine and MeAIB 10 mM
# T1 construct: SNAT1 remained active as indicated by the Na^+-dependence of alanine uptake; endogenous in cells; host or cells: HCC1806 clone D126 (ASCT2ko, SNAT2ko), amino acid depleted for 24 h
# T1 sequence (Q9H2H9 1-487): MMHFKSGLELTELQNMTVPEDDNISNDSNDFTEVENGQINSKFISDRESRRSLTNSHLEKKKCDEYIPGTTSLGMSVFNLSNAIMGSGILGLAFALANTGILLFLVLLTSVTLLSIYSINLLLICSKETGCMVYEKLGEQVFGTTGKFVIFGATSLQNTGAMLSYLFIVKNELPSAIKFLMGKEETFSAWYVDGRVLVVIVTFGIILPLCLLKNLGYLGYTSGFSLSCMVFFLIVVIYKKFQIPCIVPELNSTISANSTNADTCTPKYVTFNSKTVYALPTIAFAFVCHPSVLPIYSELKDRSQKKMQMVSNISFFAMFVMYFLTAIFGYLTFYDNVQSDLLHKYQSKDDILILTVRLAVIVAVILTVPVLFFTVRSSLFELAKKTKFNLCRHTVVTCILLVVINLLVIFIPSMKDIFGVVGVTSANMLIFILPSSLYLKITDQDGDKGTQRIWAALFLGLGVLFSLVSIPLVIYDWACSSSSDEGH
# Procedure: To delete the SNAT2 (SLC38A2) gene in modified HCC1806 cells (clone C10 nullizygous for ASCT2 ([Broer et al., 2019])), the GeneArt CRISPR Nuclease Vector with OFP Reporter Kit (Invitrogen; A21174) was employed and complementary 19–20 bp long single-stranded oligonucleotides with overhangs were designed to produce a guide RNA (gRNA) for the Cas9 nuclease that would target exon 7 of the SNAT2 gene. Colonies were analysed by sequencing using the U6 primer included in the GeneArt CRISPR Nuclease Vector with OFP Reporter kit. Plasmids that contained the correct CRISPR nuclease construct were then used to transfect HCC1806 cells with Lipofectamine 2000 (Invitrogen). Prior to transfection, medium was replaced with 2 ml of fresh DMEM/F-12 (supplemented with 10% heat-inactivated FBS and 2 mM glutamine). Plasmid DNA (4 µg) and 10 µL of Lipofectamine 2000 were incubated separately for 5 min at room temperature in 500 µl of Opti-MEM (Invitrogen) before being combined and incubated for a further 30 min at room temperature. The DNA-Lipofectamine complex was then added to the cells in a dropwise manner and allowed to be absorbed over 6 h at 37°C, after which the medium was renewed with fresh DMEM/F-12. Cells were checked for red fluorescence using an EVOS FL cell imaging system (Thermo Fisher Scientific) 48–72 h post transfection. Subsequently, cells were detached using 0.25% Trypsin EDTA. After harvesting and washing thrice with PBS (pH 7.4), cells were resuspended in PBS (pH 7.4) supplemented with 5 mM glucose and 1% dialysed and heat inactivated FBS and passed through a 100 μm cell strainer. The cell filtrate was then pelleted once more and resuspended in the same buffer. Cells were sorted using an ARIA II FACS machine and individually dispensed into the wells of a 96-well plate. Nullizygous clones were identified using a series of assays including the FLIPR membrane potential assay, western blotting and sequencing.
# (§1) Functional characterisation of plasma membrane transporters in human cancer cells was determined at 37°C using an array of radiolabelled amino acid substrates. Modified Hanks HEPES-buffered salts solution (mHBSS; 137 mM NaCl; 5.4 mM KCl; 2.7 mM K2HPO4; 1 mM CaCl2; 0.5 mM MgCl2; 0.44 mM KH2PO4; 0.4 mM MgSO4; 5 mM D-glucose; 5 mM HEPES; pH 7.4) was used to wash and incubate cells where sodium dependent transport was measured, while N-methyl-D-glucamine (NMDG) and potassium salts substituted sodium in NMDG mHBSS to measure sodium independent uptake. For the assay, cells were seeded in 35 mm dishes and, once confluent, were washed thrice with warm mHBSS solution and incubated with mHBSS containing an 100 µM amino acid at a final specific activity of ≥2000 cpm/nmol (U-[^14C]amino acids were from PerkinElmer). After 6 min, cells were washed thrice with ice-cold mHBSS, lysed with 500 µl of 0.1 M HCl, detached with a cell scraper and triturated. A 400 µl aliquot was used for scintillation counting, while the remainder was saved for protein mass quantification by Bradford assay. Transport rates were normalised to the protein content of the culture dish.
# HCC1806 cells = test: [14C]alanine uptake in non-depleted HCC1806 cells; assay type: cell-based, human; details: amino acid replete HCC1806 cells
# Procedure: as §1
# SNAT1 and SNAT2 = test: FMP assay: inhibition of glutamine-induced membrane depolarisation in amino acid depleted HCC1806 cells; assay type: cell-based, human
# Procedure: The FLIPR Membrane Potential Blue Explorer Kit (Molecular Devices) was used to characterise inhibitors and to optimise a high-throughput compound screen. Cells were seeded at approximately 60,000 cells/well on a 96-well plate and allowed to attach and grow overnight in a cell incubator. […] Cells were then washed once with mHBSS and incubated with 50 µl of the mHBSS-resuspended FMP assay dye and 50 µl of mHBSS (with or without inhibitors) and incubated at room temperature for 30 min. The plate was then placed in an EnSpire Multimode plate reader (PerkinElmer) and four sequential measurements of fluorescence were recorded as a baseline reference. Immediately after the baseline measurements were taken, 25 µl of 5 mM glutamine dissolved in mHBSS was injected into each well and the plate was shaken orbitally for 5 s before a series of consecutive fluorescence measurements were taken. The excitation wavelength was set to 530 nm and the emission was detected at 565 nm. The Δ fluorescent signal reported in the figures was taken 30 s after substrate addition. After the assay was complete, the liquid content of the plate was carefully removed, and the cell monolayer inspected to ensure it remained intact throughout the course of the assay.
# IC50 were calculated using equation y=ymax(1−x/x+IC50)
# [1] = HCC1806, second column group headed UNINDUCED (c11-c19), t=-30 s, glutamine introduced at t=0, replicates 1-3
# [2] = HCC1806 UNINDUCED (c1-c9), t=0 s
# [3] = HCC1806 UNINDUCED (c1-c9), t=15 s
# [4] = HCC1806 UNINDUCED (c1-c9), t=30 s
# [5] = HCC1806 UNINDUCED (c1-c9), t=45 s
# [6] = HCC1806 UNINDUCED (c1-c9), t=60 s
# [7] = HCC1806 UNINDUCED (c1-c9), t=75 s
# [8] = HCC1806 UNINDUCED (c1-c9), t=90 s
# [9] = HCC1806 UNINDUCED (c1-c9), t=105 s
# [10] = HCC1806 UNINDUCED (c1-c9), t=120 s
# [11] = HCC1806 UNINDUCED (c1-c9), t=135 s
# [12] = HCC1806 UNINDUCED (c1-c9), t=-15 s
# [13] = HCC1806 UNINDUCED (c1-c9), t=-30 s, glutamine introduced at t=0, replicates 1-3
# [14] = second group headed UNINDUCED (c11-c19), t=0 s
# [15] = second group headed UNINDUCED (c11-c19), t=15 s
# [16] = second group headed UNINDUCED (c11-c19), t=30 s
# [17] = second group headed UNINDUCED (c11-c19), t=45 s
# [18] = second group headed UNINDUCED (c11-c19), t=60 s
# [19] = second group headed UNINDUCED (c11-c19), t=75 s
# [20] = second group headed UNINDUCED (c11-c19), t=90 s
# [21] = second group headed UNINDUCED (c11-c19), t=105 s
# [22] = second group headed UNINDUCED (c11-c19), t=120 s
# [23] = second group headed UNINDUCED (c11-c19), t=135 s
# [24] = second group headed UNINDUCED (c11-c19), t=-15 s
inhibition of alanine uptake (SNAT1),Structure (SMILES),inhibition of [14C]alanine uptake (HCC1806 cells),FMP fluorescence reading (SNAT1 and SNAT2; [1]),FMP fluorescence reading (SNAT1 and SNAT2; [2]),FMP fluorescence reading (SNAT1 and SNAT2; [3]),FMP fluorescence reading (SNAT1 and SNAT2; [4]),FMP fluorescence reading (SNAT1 and SNAT2; [5]),FMP fluorescence reading (SNAT1 and SNAT2; [6]),FMP fluorescence reading (SNAT1 and SNAT2; [7]),FMP fluorescence reading (SNAT1 and SNAT2; [8]),FMP fluorescence reading (SNAT1 and SNAT2; [9]),FMP fluorescence reading (SNAT1 and SNAT2; [10]),FMP fluorescence reading (SNAT1 and SNAT2; [11]),FMP fluorescence reading (SNAT1 and SNAT2; [12]),FMP fluorescence reading (SNAT1 and SNAT2; [13]),FMP fluorescence reading (SNAT1 and SNAT2; [14]),FMP fluorescence reading (SNAT1 and SNAT2; [15]),FMP fluorescence reading (SNAT1 and SNAT2; [16]),FMP fluorescence reading (SNAT1 and SNAT2; [17]),FMP fluorescence reading (SNAT1 and SNAT2; [18]),also measured
not inhibited,"C[N+](C)(C)CC(=O)O [Betaine, betaine]",about 10%,–,–,–,–,–,–,–,–,–,–,–,–,–,–,–,–,–,–,Alanine uptake (nmol / mg protein x 6 min) (SNAT1; 10mM): 27.8319 nmol / mg protein x 6 min and 27.8658 nmol / mg protein x 6 min and 25.4928 nmol / mg protein x 6 min
did not inhibit alanine uptake,"Cc1ccc(S(=O)(=O)N(C)c2ccsc2C(=O)NCc2ccccc2C(F)(F)F)cc1 [Compound 57_E, 3-(N-methyl (4-methylphenyl)sulfonamido)-N-(2-trifluoromethylbenzyl)thiophene-2-carboxamide]",about 10%,–,–,–,–,–,–,–,–,–,–,–,–,–,–,–,–,–,–,discrimination between SNAT2 and SNAT1 (SNAT1): discriminated against the close transporter homologue SNAT1; Alanine uptake (nmol / mg protein x 6 min) (SNAT1; screening compounds): 28.3148 nmol / mg protein x 6 min and 26.5203 nmol / mg protein x 6 min and 27.3289 nmol / mg protein x 6 min
–,"N[C@@H](CCC(=O)NO)C(=O)O [GHX, L-glutamic acid γ-monohydroxamate]",–,80140 and 84104 and 92453,95009 and 106958 and 105072,92832 and 105585 and 105488,92285 and 105041 and 105362,92217 and 104713 and 105477,92501 and 104852 and 105149,92072 and 104235 and 104746,91505 and 104029 and 104931,91498 and 103606 and 105160,91509 and 103340 and 104992,91754 and 103170 and 104515,94947 and 106966 and 104913,94749 and 106497 and 104978,79859 and 84357 and 91947,80630 and 83515 and 91899,79854 and 83032 and 91748,79700 and 82661 and 90895,79052 and 82273 and 90365,"Mean (delta) fluorescence signal (%) (SNAT1 and SNAT2; GHX concentration 0.005): 92.4453%; Mean (delta) fluorescence signal (%) (SNAT1 and SNAT2; GHX concentration 0.05): 88.1978%; Mean (delta) fluorescence signal (%) (SNAT1 and SNAT2; GHX concentration 0.1): 81.9185%; Mean (delta) fluorescence signal (%) (SNAT1 and SNAT2; GHX concentration 0.2): 62.0593%; Mean (delta) fluorescence signal (%) (SNAT1 and SNAT2; GHX concentration 0.5): 45.7050%; Mean (delta) fluorescence signal (%) (SNAT1 and SNAT2; GHX concentration 1): 28.4974%; Mean (delta) fluorescence signal (%) (SNAT1 and SNAT2; GHX concentration 3): 5.9801%; IC50 (SNAT1 and SNAT2; glutamine induced depolarisation, HCC1806 AA- (24h), n = 3): 330 ± 160 µM; FMP fluorescence reading (SNAT1 and SNAT2; [19]): 78466 and 81641 and 89825; FMP fluorescence reading (SNAT1 and SNAT2; [20]): 78374 and 80769 and 89707; FMP fluorescence reading (SNAT1 and SNAT2; [21]): 77755 and 80422 and 88694; FMP fluorescence reading (SNAT1 and SNAT2; [22]): 77065 and 79988 and 88225; FMP fluorescence reading (SNAT1 and SNAT2; [23]): 76289 and 79358 and 87841; FMP fluorescence reading (SNAT1 and SNAT2; [24]): 80373 and 84318 and 91914"
–,"NC(=O)CC[C@H](N)C(=O)O [Glutamine, glutamine]",–,48604 and 53579 and 57451,80152 and 93008 and 95175,81192 and 94874 and 97430,81634 and 95549 and 97622,82112 and 96387 and 97827,82774 and 96256 and 98257,83212 and 96832 and 98303,83103 and 97466 and 98281,83167 and 97358 and 97714,83214 and 97405 and 97828,83426 and 97359 and 98137,80647 and 93663 and 95145,79899 and 92924 and 94884,48277 and 53613 and 57279,87410 and 95992 and 106048,92514 and 100953 and 110310,96611 and 104700 and 113605,98488 and 108054 and 116646,FMP fluorescence reading (SNAT1 and SNAT2; [19]): 100460 and 110105 and 118023; FMP fluorescence reading (SNAT1 and SNAT2; [20]): 101322 and 111642 and 119920; FMP fluorescence reading (SNAT1 and SNAT2; [21]): 102745 and 112818 and 120694; FMP fluorescence reading (SNAT1 and SNAT2; [22]): 102428 and 112661 and 120909; FMP fluorescence reading (SNAT1 and SNAT2; [23]): 102525 and 112308 and 120142; FMP fluorescence reading (SNAT1 and SNAT2; [24]): 48090 and 53580 and 57674

# — publication PMC9532951, “Identification and characterization of a novel SNAT2 (SLC38A2) inhibitor reveals synergy with glucose transport inhibition in cancer cells” (Frontiers in Pharmacology, 2022)
